Legend:
Experiment in all cases: relative viability (nuclei count vs DMSO), 5 days (fraction); higher = more cells survive
IPA-3 + Decitabine = compound: C1=CC=C2C(=C1)C=CC(=C2SSC3=C(C=CC4=CC=CC=C43)O)O [IPA-3] + Nc1ncn([C@H]2C[C@H](O)[C@@H](CO)O2)c(=O)n1 [Decitabine] (partner 2 µM)
Procedure, shortened: (§1)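 Dosing by pin tool came one day after lung cancer cell lines were seeded in 1536-well plates, using either one drug or a fixed anchor-drug dose plus five library-drug doses (not always all listed) in √10 steps. After 5 days, nuclei were counted on 4× images. Relative viability is treated-well nuclei count divided by vehicle-well nuclei count, and values are medians of duplicate plates.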

IPA-3 + Crizotinib = compound: C1=CC=C2C(=C1)C=CC(=C2SSC3=C(C=CC4=CC=CC=C43)O)O [IPA-3] + C[C@@H](Oc1cc(-c2cnn(C3CCNCC3)c2)cnc1N)c1c(Cl)ccc(F)c1Cl [Crizotinib] (partner 1 µM)
Procedure, shortened: as §1

RAF265 + Bortezomib = compound: Cn1c(Nc2ccc(C(F)(F)F)cc2)nc2cc(Oc3ccnc(-c4ncc(C(F)(F)F)[nH]4)c3)ccc21 [RAF265] + CC(C)C[C@H](NC(=O)[C@H](Cc1ccccc1)NC(=O)c1cnccn1)B(O)O [Bortezomib] (partner 0.002 µM)
Procedure, shortened: as §1

IPA-3 + Linsitinib = compound: C1=CC=C2C(=C1)C=CC(=C2SSC3=C(C=CC4=CC=CC=C43)O)O [IPA-3] + C[C@]1(O)C[C@@H](c2nc(-c3ccc4ccc(-c5ccccc5)nc4c3)c3c(N)nccn32)C1 [Linsitinib] (partner 1 µM)
Procedure, shortened: as §1

Cell Line | relative viability (IPA-3 + Decitabine; first compound 0.2 µM) | relative viability (IPA-3 + Decitabine; first compound 0.6325 µM) | relative viability (IPA-3 + Decitabine; first compound 2 µM) | relative viability (IPA-3 + Decitabine; first compound 6.325 µM) | relative viability (IPA-3 + Decitabine; first compound 20 µM) | relative viability (IPA-3 + Crizotinib; first compound 0.2 µM) | relative viability (IPA-3 + Crizotinib; first compound 0.6325 µM) | relative viability (IPA-3 + Crizotinib; first compound 2 µM) | relative viability (IPA-3 + Crizotinib; first compound 6.325 µM) | relative viability (IPA-3 + Crizotinib; first compound 20 µM) | relative viability (RAF265 + Bortezomib; first compound 0.01 µM) | relative viability (RAF265 + Bortezomib; first compound 0.03162 µM) | relative viability (RAF265 + Bortezomib; first compound 0.1 µM) | relative viability (RAF265 + Bortezomib; first compound 0.3162 µM) | relative viability (RAF265 + Bortezomib; first compound 1 µM) | relative viability (IPA-3 + Linsitinib; first compound 0.2 µM) | relative viability (IPA-3 + Linsitinib; first compound 0.6325 µM) | relative viability (IPA-3 + Linsitinib; first compound 2 µM) | relative viability (IPA-3 + Linsitinib; first compound 6.325 µM) | relative viability (IPA-3 + Linsitinib; first compound 20 µM)
HCC-78 | 0.74 | 0.665 | 0.618 | 0.548 | 0.649 | 0.341 | 0.341 | 0.365 | 0.322 | 0.399 | 0.535 | 0.506 | 0.52 | 0.956 | 0.423 | 0.569 | 0.597 | 0.454 | 0.583 | 0.635
HCC-366 | 0.399 | 0.35 | 0.349 | 0.335 | 0.321 | 0.697 | 0.564 | 0.617 | 0.521 | 0.618 | 1.11 | 1.02 | 1.06 | 1 | 0.985 | 0.996 | 0.627 | 0.723 | 0.756 | 0.696
HCC-827 | 0.359 | 0.34 | 0.33 | 0.312 | 0.327 | 0.927 | 0.89 | 0.865 | 0.873 | 0.859 | 1.1 | 1.08 | 1.08 |  | 0.869 | 0.916 | 0.943 | 0.935 | 0.917 | 0.925
HOP-62 | 0.193 | 0.213 | 0.231 | 0.229 | 0.235 | 1.3 | 0.643 | 1.01 | 1.01 | 0.922 | 1.15 |  | 1.05 | 0.674 | 0.788 | 0.903 | 1.07 | 0.754 | 1.05 | 1.2
LC-2-ad | 0.788 | 0.822 | 0.82 | 0.84 | 0.788 | 0.499 | 0.523 | 0.419 | 0.477 | 0.488 | 0.959 | 0.998 | 0.927 | 0.668 | 0.452 | 0.885 | 0.845 | 0.86 | 0.795 | 0.86
LCLC-97TM1 | 0.242 | 0.216 | 0.211 | 0.196 | 0.235 | 0.439 | 0.355 | 0.448 | 0.315 | 0.343 | 0.253 | 0.671 | 0.492 | 0.181 | 0.238 | 0.208 | 0.215 | 0.181 | 0.202 | 0.215
LCLC-103H | 0.703 | 0.684 | 0.749 | 0.748 | 0.638 | 1.07 | 0.947 | 1.03 | 1.15 | 1.1 | 1.02 | 1.07 | 0.994 | 1 | 0.627 | 1.1 | 1.07 | 1.01 | 1.1 | 1.16
LOU-NH91 | 0.821 | 0.856 | 0.815 | 0.82 | 0.888 | 0.723 | 0.757 | 0.809 | 0.728 | 0.801 | 0.542 | 0.465 | 0.521 | 0.596 | 0.521 | 0.985 | 0.92 | 0.979 | 0.99 | 1.14
LU99A | 0.974 | 0.813 | 0.881 | 0.867 | 0.879 | 0.635 | 0.529 | 0.615 | 0.517 | 0.533 | 1.18 | 1.11 | 0.697 | 0.605 | 0.409 | 0.563 | 0.476 | 0.553 | 0.517 | 0.547
LXF-289 | 0.368 | 0.368 | 0.345 | 0.37 | 0.422 | 0.828 | 0.764 | 0.811 | 0.829 | 0.86 | 0.996 | 0.988 | 0.969 | 0.763 | 0.796 | 1.09 | 0.961 | 0.951 | 1.02 | 1.11
NCI-H23 | 0.285 | 0.313 | 0.319 | 0.329 | 0.299 | 0.488 | 0.376 | 0.599 | 0.545 | 0.654 | 1.21 | 0.937 | 0.606 | 0.621 | 0.353 | 0.613 | 0.667 | 0.522 | 0.603 | 0.645
NCI-H322M | 0.679 | 0.654 | 0.749 | 0.663 | 0.718 | 1.08 | 0.933 | 0.96 | 0.886 | 1.1 | 1.3 | 1.32 | 1.14 | 0.55 | 0.258 | 1.01 | 0.941 | 0.987 | 0.947 | 0.978
NCI-H441 | 0.268 | 0.257 | 0.205 | 0.234 | 0.21 | 0.859 | 0.635 | 0.804 | 0.659 | 0.723 | 0.446 |  | 0.499 | 0.362 | 0.207 | 0.568 | 0.568 | 0.611 | 0.541 | 0.515
NCI-H460 | 0.65 | 0.41 | 0.492 | 0.465 | 0.324 | 1.07 | 0.871 | 0.908 | 0.726 | 0.62 | 1.15 | 1.22 | 1.09 |  | 0.742 | 1.69 | 0.603 | 0.968 | 0.711 | 0.771
